The values that follow are results of earlier work, collected in patent US20240173315A1 (OWP Pharmaceuticals, Inc., priority 2022, published 2024).

Structures can show the parent of a compound that is named as a salt. Where two headings read alike, the source gives them in different places.

For data set [1] the following is noted: humans, oral.
For data set [2] the following is noted: oral dose.
Data set [3] has as its target T1, CYP3A4 (Homo sapiens, UniProt P08684).
T1 construct: In vitro studies in human liver microsomes; from tissue; host or cells: human liver microsomes
The settings on record: in vitro.

T1 sequence (P08684 whole entry): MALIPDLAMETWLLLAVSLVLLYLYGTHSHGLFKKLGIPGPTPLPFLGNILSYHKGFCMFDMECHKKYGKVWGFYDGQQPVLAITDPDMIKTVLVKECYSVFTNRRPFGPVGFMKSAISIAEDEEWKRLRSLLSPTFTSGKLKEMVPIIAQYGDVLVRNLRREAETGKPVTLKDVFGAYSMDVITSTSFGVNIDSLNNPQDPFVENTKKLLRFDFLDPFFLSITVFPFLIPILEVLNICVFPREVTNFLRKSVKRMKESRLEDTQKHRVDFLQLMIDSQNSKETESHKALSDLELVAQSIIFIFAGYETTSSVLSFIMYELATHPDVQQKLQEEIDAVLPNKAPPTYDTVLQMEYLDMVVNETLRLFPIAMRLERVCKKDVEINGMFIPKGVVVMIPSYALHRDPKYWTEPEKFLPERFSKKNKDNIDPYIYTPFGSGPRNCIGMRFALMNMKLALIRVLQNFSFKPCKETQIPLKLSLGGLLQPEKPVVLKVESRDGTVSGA

For `O=c1n(CCCN2CCN(c3cccc(Cl)c3)CC2)nc2ccccn12` [trazodone hydrochloride], the figures for the “time after dosing at which peak plasma levels occur” value in data set [1] (taken on an empty stomach) and in data set [1] (taken with food) were “approximately one” and approximately 2 h, respectively. Moreover, the “effect of food on amount of drug absorbed” value in data set [1] (taken shortly after ingestion of food) was “increase”.
`O=c1n(CCCN2CCN(c3cccc(Cl)c3)CC2)nc2ccccn12` [trazodone, 2-{3-[4-(3-chlorophenyl)piperazin-1-yl]propyl}[1,2,4]triazolo[4,3-a]pyridin-3(2H)-one]: the “excreted unchanged in the urine” value in data set [2] is reported as “less than 1 % of an oral dose”. The “metabolism in human liver microsomes” value in data set [3] is on record as “metabolized, via oxidative cleavage, to an active metabolite, m-chlorophenvlpipera.zine (mCPP) by CYP3A4”.
